Read-outs that look alike come from different tables or passages of the source.
How the values were obtained:
[1] = TAMRAD study; cited from earlier work
[2] = system: breast tumours with low or high LKB1 expression; experiment: TAMRAD translational study: time to progression by LKB1 H score (IHC) in primary tumour; type: in vivo, human
Method: Paraffin embedded breast tumors were serially sectioned at a thickness of 4 μm. After deparaffinization and rehydration, tissue sections were boiled in low pH buffer (Dako) using a PT Link at 97° C. for 30 minutes. For blocking endogenous peroxidases, the slides were incubated in 5% hydrogen peroxide in sterile water. The slides were then incubated at room temperature for one hour with the anti-LKB1 polyclonal rabbit antibody (Ref: Ab58786, Abcam, Cambridge, UK) diluted at 1/50. After rinsing in Phosphate Buffer Saline, the slides were incubated with a biotinylated secondary antibody bound to a streptavidin peroxidase conjugate (Envision Flex kit Ref: K800021-2, Dako, Trappes, France). […] Sections were counterstained with hematoxylin.
All slides were read by a single senior pathologist who was blinded to the clinical data. For comparison of the staining among tissues, samples were scored semi-quantitatively using a complete histological score (H score) that considered both the staining intensity and the percentage of cells stained at a specific range of intensities. For each case, the complete H score was defined as the products of the percentage of cells stained at a given staining intensity (0-100) and the staining intensity score (0, none; 1, weak, 2, moderate, and 3, intense). […]

[3] = system: hormone receptor-positive and human epidermal growth factor receptor type 2 (HER2)-negative mBC; details: cited from earlier work
[4] = system: metastatic breast cancer ER+/HER2− progressed after aromatase inhibitor; details: 724 patients randomized 2:1; cited from earlier work

CO[C@H]1C[C@@H]2CC[C@@H](C)[C@@](O)(O2)C(=O)C(=O)N2CCCC[C@H]2C(=O)O[C@H]([C@H](C)C[C@@H]2CC[C@@H](OCCO)[C@H](OC)C2)CC(=O)[C@H](C)/C=C(\C)[C@@H](O)[C@@H](OC)C(=O)[C@H](C)C[C@H](C)/C=C/C=C/C=C/1C [everolimus, 42-O-(2-hydroxyethyl)rapamycin]
patients who had to decrease the dose of everolimus [1]: 20%
patients who had to stop everolimus due to toxicities [1]: 20%

CC/C(=C(\c1ccccc1)c1ccc(OCCN(C)C)cc1)c1ccccc1 [tamoxifen]
time to progression ([2]; patients with H Score above 90, p=0.35): 5.5 months
time to progression ([2]; patients with LKB1 H Score below or at 90, P=0.03): 4.5 months
median TTP ([3]; ITT population, exploratory P=0.002): 4.5 months
clinical benefit rate (CBR) at 6 months ([3]; ITT population, exploratory P=0.045): 42%
time-to-progression (TTP) ([3]; TAMRAD trial, 111 patients): 4.5 months
median OS ([3]; last update of OS in September 2011): 32.9 months
clinical benefit rate (CBR) at 6 months ([3]; per-protocol population): 41%

exemestane [exemestane and placebo]
progression free survival (PFS), local investigator assessment [4]: 2.8 months

From patent US20150250770A1, “LKB1 AS PREDICTIVE MARKER OF EVEROLIMUS EFFICACY IN BREAST CANCER” (CENTRE LEON BERARD, priority 2012, published 2015)
